Source: PMC12040969, “Design, synthesis, in silico studies, and apoptotic antiproliferative activity of novel thiazole-2-acetamide derivatives as tubulin polymerization inhibitors” (Frontiers in Chemistry, 2025)

Experiments:
tubulin = experiment: Tubulin polymerization inhibition assay (Cytoskeleton kit); settings: for Tub %inh: 30 min, YB-EGY run; for Tub K.Activity: EC = 120, YB-EGY run;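 for all read-outs here: Cell-free tubulin polymerization read by fluorescent reporter enhancement over a 30 min reaction, with the compound-free kit control taken as 100% activity and inhibition relative to it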
[1] = Cell viability assay (MTT), normal cells; format: cell-based; settings: human, MCF-10A normal mammary gland epithelial cells, four-day incubation
Procedure: The impact of novel compounds 10a-o and 13a-e on cell viability was examined using the MCF-10A (human mammary gland epithelial) normal cell line. The MTT test was employed to assess the cell viability of the novel compounds after a four-day incubation with MCF-10A cells ([El-Sherief et al., 2019]; [Ramadan et al., 2020]).
The effects of compounds 10a-o and 13a-e on cell viability were assessed using the human mammary gland epithelial normal cell line (MCF-10A). The MTT assay assessed the cell viability of compounds 10a-o and 13a-e following a four-day incubation with MCF-10A cells ([El-Sherief et al., 2019]; [Ramadan et al., 2020]). Check Supplementary Appendix A for additional information.
4.2. Biological evaluation
4.2.1 Cell Viability assay (MTT assay)
MTT assay was performed to investigate the effect of the synthesized compounds on mammary epithelial cells (MCF-10A). The cells were propagated in medium consisting of Ham's F-12 medium/ Dulbecco's modified Eagle's medium (DMEM) (1:1) supplemented with 10% foetal calf serum, 2 mM glutamine, insulin (10 μg/mL), hydrocortisone (500 ng/mL) and epidermal growth factor (20 ng/mL). Trypsin ethylenediamine tetra acetic acid (EDTA) was used to passage the cells after every 2-3 days. 96-well flat-bottomed cell culture plates were used to seed the cells at a density of 10^4 cells mL-1. The medium was aspirated from all the wells of culture plates after 24 h followed by the addition of synthesized compounds (in 200 μL medium to yield a final concentration of 0.1% (v/v) dimethyl sulfoxide) into individual wells of the plates.
Four wells were designated to a single compound. The plates were allowed to incubate at 37°C for 96 h. Afterwards, the medium was aspirated and 3-[4,5-dimethylthiazol-2-yl]-2,5-diphenyltetrazolium bromide (MTT) (0.4 mg/mL) in medium was added to each well and subsequently incubated for 3 h. The medium was aspirated and 150 μL dimethyl sulfoxide (DMSO) was added to each well. The plates were vortexed followed by the measurement of absorbance at 540 nm on a microplate reader. The results were presented as inhibition (%) of proliferation in contrast to controls comprising 0.1%

breast - MCF-7 = experiment: Antiproliferative assay (MTT) MCF-7; settings: read-out: Antiproliferative activity IC50 ± SEM (µM) MCF-7; MCF-7, MTT
[2] = tested on: four human cancer cell lines (HCT-116, PC-3, MCF-7, MDAMB-231); experiment: Antiproliferative assay, mean of four cell lines (GI50); settings: Homo sapiens, read-out: GI50 (average IC50)
colon - HCT-116 = experiment: Antiproliferative assay (MTT) HCT-116; settings: read-out: Antiproliferative activity IC50 ± SEM (µM) HCT-116; HCT-116, MTT
prostatic - PC-3 = experiment: Antiproliferative assay (MTT) PC-3; settings: read-out: Antiproliferative activity IC50 ± SEM (µM) PC-3; PC-3, MTT
pancreatic - MDAMB-231 = experiment: Antiproliferative assay (MTT) MDAMB-231; settings: read-out: Antiproliferative activity IC50 ± SEM (µM) MDAMB-231; MDAMB-231, MTT

With `COc1ccc(/C=C/C(=O)c2sc(SCC(=O)Nc3nccs3)nc2C)cc1` [Compound 13e, (E)-2-((5-(3-(4-methoxyphenyl)acryloyl)-4-methylthiazol-2-yl)thio)-N-(thiazol-2-yl)acetamide] the Tub %inh (tubulin; conc 0.1 (unit not given)) was 7.07%, the “Tub K.Activity” value (tubulin; conc 0.1 (unit not given)) was 111.52 and the Tub %inh (tubulin; conc 1 (unit not given)) was 16.4%. For the same compound, the “Tub K.Activity” value (tubulin; conc 1 (unit not given)) was 100.36, the Tub %inh (tubulin; conc 10 (unit not given)) was 26.3% and the “Tub K.Activity” value (tubulin; conc 10 (unit not given)) was 88.403. For the same compound, the Tub %inh (tubulin; conc 50 (unit not given)) was 41.7%, the “Tub K.Activity” value (tubulin; conc 50 (unit not given)) was 69.965 and the Tub %inh (tubulin; conc 100 (unit not given)) was 75.9%. For the same compound, the “Tub K.Activity” value (tubulin; conc 100 (unit not given)) was 28.968, the IC50 (tubulin; read-out: Tubulin inhibition IC50 ± SEM, triplicate for each tested concentration) was 39.9 ± 1.22 µM and the viability at 96 h, 50 µM [1] was 91%.

Compound `COc1cccc2c1C(=O)c1c(O)c3c(c(O)c1C2=O)C[C@@](O)(C(=O)CO)C[C@@H]3O[C@H]1C[C@H](N)[C@H](O)[C@H](C)O1` [Doxorubicin, reference compound] has an IC50 (breast - MCF-7) of 4 ± 0.2 µM, an IC50 [2] of 5 µM and an IC50 (colon - HCT-116) of 5 ± 0.3 µM. It also gave an IC50 (prostatic - PC-3) of 9 ± 0.6 µM and an IC50 (pancreatic - MDAMB-231) of 3 ± 0.1 µM.

`CNC(=O)c1cc(Oc2ccc(NC(=O)Nc3ccc(Cl)c(C(F)(F)F)c3)cc2)ccn1` [Sorafenib, reference compound] gave an IC50 (breast - MCF-7) of 7 ± 0.3 µM, an IC50 [2] of 8 µM and an IC50 (colon - HCT-116) of 6 ± 0.3 µM. It also gave an IC50 (prostatic - PC-3) of 12 ± 0.9 µM and an IC50 (pancreatic - MDAMB-231) of 8 ± 0.4 µM.
